Values of other authors in patent US10138221B2, “Salts of nilotinib and polymorphs thereof” (Sun Pharmaceutical Industries Limited, priority 2014, dated 2018).
Where two headings read alike, the source gives them in different places.

Experiments:
[1] = low solubility/low permeability

Cc1cn(-c2cc(NC(=O)c3ccc(C)c(Nc4nccc(-c5cccnc5)n4)c3)cc(C(F)(F)F)c2)cn1 [Nilotinib, 4-methyl-N-[3-(4-methyl-1H-imidazol-1-yl)-5-(trifluoromethyl)phenyl]-3-[[4-(3-pyridinyl)-2-pyrimidinyl]amino]-benzamide]
Biopharmaceutics Classification System (BCS) class (solubility/permeability) [1]: class IV
solubility (acidic media): soluble
solubility (buffer solutions of pH 4.5 and higher): practically insoluble
